For this assay, the system named is LG0567-F671-PDC KRAS tumor spheroid viability. The experiment in a line: Anticancer human tumor LG0567-F671-PDC patient-derived lung adenocarcinoma cell line growth inhibition [KRAS2]. The following applies: spheroids with HUVEC and MSC; for viability, T/C: stronger effect = lower value. Summed up:
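KRAS-mutant tumor cells were grown as spheroids with HUVEC endothelial cells and human MSCs as stroma. Targeted agents were tested alone and with KRAS pathway inhibitors. Doses started at or near clinical Cmax, or 10 microM, descending half-log.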

[1] abbreviates: curve of first compound, second compound 0.1 µM.
[2] abbreviates: curve of first compound, second compound 0.316 µM.
Where [3] appears, read: curve of first compound, second compound 1 µM.
The mark [4] stands for this setting: curve of first compound, second compound 3.16 µM.
Setting [5] is: curve of first compound, second compound 10 µM.
Where [6] appears, read: second compound 0.1 µM, first compound 0.01 µM.
[7] abbreviates: second compound 0.1 µM, first compound 0.0316 µM.
Where [8] appears, read: second compound 0.316 µM, first compound 0.01 µM.
Setting [9] is: second compound 0.316 µM, first compound 0.0316 µM.
[10] abbreviates: second compound 1 µM, first compound 0.01 µM.
[11] abbreviates: second compound 1 µM, first compound 0.0316 µM.
The mark [12] stands for this setting: second compound 3.16 µM, first compound 0.01 µM.
Where [13] appears, read: second compound 3.16 µM, first compound 0.0316 µM.
[14] abbreviates: second compound 10 µM, first compound 0.01 µM.
The mark [15] stands for this setting: second compound 10 µM, first compound 0.0316 µM.

Bounds are passed on as bounds.

From PubChem BioAssay AID1963856 (Molecular Pharmacology Branch, DTP, NCI, 2024) come the findings set out here.

By IC50 is commonly meant the point on the concentration scale where inhibition reaches its midpoint. By viability, T/C is commonly meant the result in the treated group divided by that in the control group, in per cent.
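Further: drug exposure lasted seven days after spheroids formed for three days.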
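Wherever viability, T/C is given: 100% = DMSO vehicle control viability.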

On to `CC(=O)Nc1cccc(-n2c(=O)n(C3CC3)c(=O)c3c(Nc4ccc(I)cc4F)n(C)c(=O)c(C)c32)c1` + CNCc1ccccc1-c1csc(C(C)Nc2nc(C)nc3cc(OC)c(OC)cc23)c1, for which the IC50 under setting [1] was 2.08 nM; the IC50 under setting [2] was 0.799 nM; the IC50 under setting [3] was determined as 0.813 nM; the IC50 under setting [4] was less than 0.1 nM; the IC50 under setting [5] was less than 0.1 nM. In addition, the viability, T/C reads like this: (second compound 0.1 µM, first compound 0.0001 µM) 73.6%; (second compound 0.1 µM, first compound 0.000316 µM) 68.3%; (second compound 0.1 µM, first compound 0.001 µM) 49.1%; (second compound 0.1 µM, first compound 0.00316 µM) 52.5%; under setting [6], 29.4%; under setting [7], 11.6%. The viability, T/C runs as follows: (second compound 0.316 µM, first compound 0.0001 µM) 65.1%; (second compound 0.316 µM, first compound 0.000316 µM) 54.7%; (second compound 0.316 µM, first compound 0.001 µM) 47.8%; (second compound 0.316 µM, first compound 0.00316 µM) 33.4%; under setting [8], 39%; under setting [9], 8.76%. Also, the viability, T/C is 61.8% (second compound 1 µM, first compound 0.0001 µM); 63.2% (second compound 1 µM, first compound 0.000316 µM); 46.9% (second compound 1 µM, first compound 0.001 µM); 26.8% (second compound 1 µM, first compound 0.00316 µM); 17.9% under setting [10]; 8.07% under setting [11]. For the same compound, the viability, T/C (second compound 3.16 µM, first compound 0.0001 µM) is 2.63%; the viability, T/C (second compound 3.16 µM, first compound 0.000316 µM) is 1.14%; the viability, T/C (second compound 3.16 µM, first compound 0.001 µM) is 0.22%; the viability, T/C (second compound 3.16 µM, first compound 0.00316 µM) was 0.57%; the viability, T/C under setting [12] is 0.29%; the viability, T/C under setting [13] was 0.3%. Also, the viability, T/C runs as follows: (second compound 10 µM, first compound 0.0001 µM) 1.49%; (second compound 10 µM, first compound 0.000316 µM) 0.17%; (second compound 10 µM, first compound 0.001 µM) 0.53%; (second compound 10 µM, first compound 0.00316 µM) 0.14%; under setting [14], 0.14%; under setting [15], 0.24%.
Consider `COC(=O)c1ccc2c(C(=Nc3ccc(N(C)C(=O)CN4CCN(C)CC4)cc3)c3ccccc3)c(O)[nH]c2c1`, for which the viability, T/C was 91% [middle of 5 runs] (compound 0.1 µM), 90.2% [middle of 5 runs] (compound 1 µM), 93% [middle of 5 runs] (compound 3.16 µM) and 94.1% [middle of 5 runs] (compound 10 µM). Moreover, the IC50 (curve of compound) was more than 10000 nM.
Turning to `CC(=O)OC12COC1CC(O)C1(C)C(=O)C(O)C3=C(C)C(OC(=O)C(O)C(NC(=O)OC(C)(C)C)c4ccccc4)CC(O)(C(OC(=O)c4ccccc4)C21)C3(C)C` (configuration not stated) + C=CC(=O)N1CCN(c2nc(=O)n(-c3c(C)ccnc3C(C)C)c3nc(-c4c(O)cccc4F)c(F)cc23)C(C)C1, the IC50 reads like this: under setting [1], less than 10 nM; under setting [2], less than 10 nM; under setting [3], less than 10 nM; under setting [4], less than 10 nM; under setting [5], less than 10 nM. The viability, T/C reads like this: under setting [6], 13.4%; under setting [7], 14.2%; (second compound 0.1 µM, first compound 0.1 µM) 14.2%; (second compound 0.1 µM, first compound 0.316 µM) 14.9%; (second compound 0.1 µM, first compound 1 µM) 18.2%; (second compound 0.1 µM, first compound 3.16 µM) 13.5%. In addition, the viability, T/C by setting is: under setting [8], 13.7%; under setting [9], 12%; (second compound 0.316 µM, first compound 0.1 µM) 12.1%; (second compound 0.316 µM, first compound 0.316 µM) 12.3%; (second compound 0.316 µM, first compound 1 µM) 16.3%; (second compound 0.316 µM, first compound 3.16 µM) 12.7%. Moreover, the viability, T/C under setting [10] is 12.6%; the viability, T/C under setting [11] is 10.2%; the viability, T/C (second compound 1 µM, first compound 0.1 µM) is 10.1%; the viability, T/C (second compound 1 µM, first compound 0.316 µM) is 12%; the viability, T/C (second compound 1 µM, first compound 1 µM) is 12.8%; the viability, T/C (second compound 1 µM, first compound 3.16 µM) was 10.6%. In addition, the viability, T/C under setting [12] was 10.7%; the viability, T/C under setting [13] is 9.62%; the viability, T/C (second compound 3.16 µM, first compound 0.1 µM) is 9.62%; the viability, T/C (second compound 3.16 µM, first compound 0.316 µM) was 9.52%; the viability, T/C (second compound 3.16 µM, first compound 1 µM) was 13.2%; the viability, T/C (second compound 3.16 µM, first compound 3.16 µM) is 10.1%. Besides, the viability, T/C reads like this: under setting [14], 13.7%; under setting [15], 14%; (second compound 10 µM, first compound 0.1 µM) 15.6%; (second compound 10 µM, first compound 0.316 µM) 14.4%; (second compound 10 µM, first compound 1 µM) 14.5%; (second compound 10 µM, first compound 3.16 µM) 12.1%.
`CCN1CCN(Cc2ccc(Nc3ncc(F)c(-c4cc(F)c5nc(C)n(C(C)C)c5c4)n3)nc2)CC1`: the viability, T/C is, setting by setting: (compound 0.00316 µM) 97.6% [middle of 5 runs]; (compound 0.01 µM) 93.7% [middle of 5 runs]; (compound 0.0316 µM) 76.9% [middle of 5 runs]; (compound 0.1 µM) 71% [middle of 5 runs]; (compound 0.316 µM) 70.9% [middle of 5 runs]; (compound 1 µM) 65.2% [middle of 5 runs]. Where the note is “curve of compound”, the IC50 is more than 1000 nM.
Take `C=CC(=O)N1CCN(c2nc(=O)n(-c3c(C)ccnc3C(C)C)c3nc(-c4c(O)cccc4F)c(F)cc23)C(C)C1` (configuration not stated): the viability, T/C reads like this: (compound 0.1 µM) 25.5% [middle of 17 runs]; (compound 0.316 µM) 23.7% [middle of 17 runs]; (compound 1 µM) 25.1% [middle of 17 runs]; (compound 3.16 µM) 24.4% [middle of 17 runs]; (compound 10 µM) 23.8% [middle of 17 runs]. Further, the IC50 is, setting by setting: (compound alone, run of 07/12/2021) less than 100 nM; (compound alone, run of 07/19/2021) less than 100 nM; (compound alone, run of 07/26/2021) less than 100 nM.
In the case of `Cn1ncnc1[C@H]1c2n[nH]c(=O)c3cc(F)cc(c23)N[C@@H]1c1ccc(F)cc1`, the viability, T/C by setting is: (compound 0.000316 µM) 99.5% [middle of 5 runs]; (compound 0.001 µM) 106% [middle of 5 runs]; (compound 0.00316 µM) 101% [middle of 5 runs]; (compound 0.01 µM) 102% [middle of 5 runs]; (compound 0.0316 µM) 104% [middle of 5 runs]; (compound 0.1 µM) 90.9% [middle of 5 runs]. In addition, where the note is “curve of compound”, the IC50 is more than 100 nM.
